Measured values published in the supplement of paper PMC10307832.

Key:
Assay in all cases: relative viability (nuclei count vs DMSO), 5 days (fraction); higher = more cells survive
[1] = compound: CC[C@@H](C)CNCC(=O)N1CCC2=C([C@@H]1COC3=CC=CC(=C3)C)C=CS2 [RU-SKI 43] + Nc1nc2[nH]cc(CCc3ccc(C(=O)N[C@@H](CCC(=O)O)C(=O)O)cc3)c2c(=O)[nH]1 [Pemetrexed] (partner 0.2 µM)
How it was run: (§1)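 Lung cancer cell lines were seeded in 1536-well plates and dosed by pin tool the next day, with either a single drug or a fixed anchor-drug dose combined with five library-drug doses (not always all listed) spaced in √10 steps. Five days later, one step fixed the cells and stained their nuclei (final 0.05% Triton X-100, 1% formaldehyde, 1 ug/ml Hoechst), and nuclei were counted on 4× images. Relative viability is the nuclei count in treated wells divided by the count in vehicle wells, and each value is the median of duplicate plates.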

[2] = compound: CCc1c2c(nc3ccc(OC(=O)N4CCC(N5CCCCC5)CC4)cc13)-c1cc3c(c(=O)n1C2)COC(=O)[C@]3(O)CC [Irinotecan] + CS(=O)(=O)N1CCN(Cc2cc3nc(-c4cccc5[nH]ncc45)nc(N4CCOCC4)c3s2)CC1 [Pictilisib] (partner 1 µM)
How it was run: as §1

[3] = compound: CC[C@@H](C)CNCC(=O)N1CCC2=C([C@@H]1COC3=CC=CC(=C3)C)C=CS2 [RU-SKI 43] + COc1cccc2cc(-c3nc([C@H]4CC[C@H](C(=O)O)CC4)n4ncnc(N)c34)[nH]c12 [OSI-027] (partner 0.5 µM)
How it was run: as §1

[4] = compound: CC[C@@H](C)CNCC(=O)N1CCC2=C([C@@H]1COC3=CC=CC(=C3)C)C=CS2 [RU-SKI 43] + O=C(CCCCCCC(=O)Nc1ccccc1)NO [Vorinostat] (partner 1 µM)
How it was run: as §1

Row | Cell Line | relative viability ([1]; first compound 0.1 µM) | relative viability ([1]; first compound 0.3162 µM) | relative viability ([1]; first compound 1 µM) | relative viability ([1]; first compound 3.162 µM) | relative viability ([1]; first compound 10 µM) | relative viability ([2]; first compound 0.6325 µM) | relative viability ([2]; first compound 2 µM) | relative viability ([2]; first compound 6.325 µM) | relative viability ([2]; first compound 20 µM) | relative viability ([3]; first compound 0.1 µM) | relative viability ([3]; first compound 0.3162 µM) | relative viability ([3]; first compound 1 µM) | relative viability ([3]; first compound 3.162 µM) | relative viability ([3]; first compound 10 µM) | relative viability ([4]; first compound 0.1 µM) | relative viability ([4]; first compound 0.3162 µM) | relative viability ([4]; first compound 1 µM) | relative viability ([4]; first compound 3.162 µM) | relative viability ([4]; first compound 10 µM)
1 | NCI-H322M | 0.642 | 0.68 | 0.662 | 0.673 | 0.572 | 0.532 | 0.507 | 0.344 | 0.338 | 0.548 | 0.511 | 0.581 | 0.576 | 0.575 | 0.83 | 0.925 | 0.911 | 0.998 | 0.782
2 | NCI-H358 | 0.169 | 0.189 | 0.17 | 0.176 | 0.176 | 0.265 | 0.387 | 0.282 | 0.171 | 0.597 | 0.642 | 0.975 | 0.865 | 0.564 | 0.642 | 0.929 | 0.708 | 0.793 | 0.614
3 | NCI-H441 | 0.28 | 0.273 | 0.277 | 0.255 | 0.219 | 0.434 | 0.314 | 0.216 | 0.32 | 0.677 | 0.511 | 0.665 | 0.6 | 0.481 | 0.752 | 0.97 | 0.97 | 0.741 | 0.849
4 | NCI-H460 | 0.0581 | 0.0578 | 0.0612 | 0.0618 | 0.0606 | 0.328 | 0.314 | 0.0912 | 0.0812 | 0.643 | 1.24 | 1.14 | 0.913 | 0.521 | 0.81 | 1.3 | 0.787 | 0.75 | 0.565
5 | NCI-H520 | 0.651 | 0.801 | 0.831 | 0.858 | 0.636 | 0.225 | 0.324 | 0.201 | 0.152 | 0.301 | 0.303 | 0.287 | 0.251 | 0.349 | 0.77 | 0.745 | 0.788 | 0.704 | 0.646
6 | NCI-H596 | 0.537 | 0.473 | 0.552 | 0.507 | 0.508 | 0.395 | 0.394 | 0.382 | 0.484 | 0.823 | 0.729 | 0.871 | 0.764 | 0.607 | 0.853 | 0.534 | 0.669 | 0.589 | 0.501
7 | NCI-H647 | 0.169 | 0.178 | 0.199 | 0.169 | 0.169 | – | 0.65 | 0.219 | 0.208 | 0.647 | 0.864 | 0.755 | 0.918 | 0.707 | 0.543 | 0.948 | 0.573 | 0.731 | 0.527
8 | NCI-H650 | 0.907 | 0.962 | – | 0.879 | 0.932 | 0.798 | 0.297 | 0.294 | 0.307 | 0.496 | 0.467 | 0.643 | 0.494 | 0.565 | 0.497 | 0.369 | – | 0.455 | 0.459
9 | NCI-H661 | 0.874 | 1.05 | 0.902 | 0.952 | 0.861 | 0.413 | 0.349 | 0.262 | 0.33 | 0.721 | 0.808 | 0.724 | 0.694 | 0.68 | 0.752 | 0.984 | 0.815 | 0.777 | 0.736
10 | NCI-H838 | 0.256 | 0.248 | 0.251 | 0.251 | 0.249 | 0.472 | 0.403 | 0.279 | 0.214 | 0.431 | 0.264 | 0.355 | 0.417 | 0.38 | 0.745 | 0.842 | 0.733 | 0.744 | 0.633
11 | NCI-H1355 | 1.02 | 1.09 | 1.09 | 1.14 | 1.05 | 0.201 | 0.407 | 0.202 | 0.238 | 0.408 | 0.378 | 0.486 | 0.428 | 0.442 | 0.725 | 0.704 | 0.645 | 0.701 | 0.615
12 | NCI-H1395 | 0.992 | 0.805 | 1.2 | 0.855 | 0.967 | – | 0.539 | 0.471 | 0.35 | 0.717 | 0.684 | 0.747 | 0.558 | 0.6 | 0.844 | 0.602 | 1.07 | 0.611 | 0.91
13 | NCI-H1437 | 0.318 | 0.352 | 0.328 | 0.306 | 0.295 | 0.366 | 0.322 | 0.184 | 0.115 | 0.986 | 0.855 | 0.865 | 0.943 | 0.862 | 0.839 | 0.958 | 0.84 | 0.798 | 0.671
14 | NCI-H1650 | 0.344 | 0.37 | 0.439 | 0.377 | 0.322 | 0.254 | 0.657 | 0.295 | 0.108 | 0.597 | 0.584 | 0.835 | 0.618 | 0.618 | 0.55 | 0.674 | 0.523 | 0.583 | 0.589
15 | NCI-H1651 | 0.556 | 0.701 | 0.744 | 0.557 | 0.59 | 0.427 | 0.425 | 0.175 | 0.108 | 0.838 | 0.768 | 0.878 | 0.764 | 0.846 | 0.617 | 0.573 | 0.676 | 0.559 | 0.548
16 | NCI-H1666 | 0.864 | 0.914 | 0.901 | 0.815 | 0.844 | 0.559 | 0.338 | 0.409 | 0.311 | 0.897 | 0.87 | 0.85 | 0.858 | 0.752 | 0.953 | 1.08 | 1.13 | 0.997 | 0.799
17 | NCI-H1734 | 0.44 | 0.406 | 0.426 | 0.41 | 0.407 | 0.298 | 0.446 | 0.16 | 0.184 | 0.498 | 0.638 | 0.603 | 0.671 | 0.534 | 0.821 | 0.833 | 0.81 | 0.852 | 0.701
